System: Lactobacillus isolates
Assay: Antibiotic disc susceptibility assay
Settings: sensitive if zone of 1 mm or greater
Method: Antibiotic sensitivity profiles of the isolates were determined using the ‘disc susceptibility’ assay. Cultures were grown up in the appropriate broth medium for 24–48 h, spread-plated (100 μl) onto agar media and discs containing known concentrations of the antibiotics were placed onto the agar. Strains were examined for antibiotic sensitivity after 1–2 days incubation at 37° under anaerobic conditions. Strains were considered sensitive if zones of inhibition of 1 mm or greater were seen.

Compound | Sensitivity of the lactobacilli to the antibiotic
CO/N=C(\C(=O)N[C@@H]1C(=O)N2C(C(=O)O)=C(CSc3nc(=O)c(=O)[nH]n3C)CS[C@H]12)c1csc(N)n1 [ceftriaxone] | sensitive
NCC[C@H](O)C(=O)N[C@@H]1C[C@H](N)[C@@H](O[C@H]2O[C@H](CN)[C@@H](O)[C@H](O)[C@H]2O)[C@H](O)[C@H]1O[C@H]1O[C@H](CO)[C@@H](O)[C@H](N)[C@H]1O [amikacin] | resistant
CC1(C)S[C@@H]2[C@H](NC(=O)[C@H](N)c3ccc(O)cc3)C(=O)N2[C@H]1C(=O)O [amoxycillin] | sensitive
CCn1cc(C(=O)O)c(=O)c2ccc(C)nc21 [nalidixic acid] | resistant
CCN[C@@H]1C[C@H](N)[C@@H](O[C@H]2OC(CN)=CC[C@H]2N)[C@H](O)[C@H]1O[C@H]1OC[C@](C)(O)[C@H](NC)[C@H]1O [netilmicin] | resistant
COc1cc(Cc2cnc(N)nc2N)cc(OC)c1OC [trimethoprim] | resistant
O=C(O)c1cn(C2CC2)c2cc(N3CCNCC3)c(F)cc2c1=O [ciprofloxacin] | sensitive
CC1(C)S[C@@H]2[C@H](NC(=O)[C@H](N)c3ccccc3)C(=O)N2[C@H]1C(=O)O [ampicillin] | sensitive
CC1=C(C(=O)O)N2C(=O)[C@@H](NC(=O)[C@H](N)C3=CCC=CC3)[C@H]2SC1 [cephradine] | sensitive
CN[C@H](CC(C)C)C(=O)N[C@H]1C(=O)N[C@@H](CC(N)=O)C(=O)N[C@H]2C(=O)N[C@H]3C(=O)N[C@H](C(=O)N[C@H](C(=O)O)c4cc(O)cc(O)c4-c4cc3ccc4O)[C@H](O)c3ccc(c(Cl)c3)Oc3cc2cc(c3O[C@@H]2O[C@H](CO)[C@@H](O)[C@H](O)[C@H]2O[C@H]2C[C@](C)(N)[C@H](O)[C@H](C)O2)Oc2ccc(cc2Cl)[C@H]1O [vancomycin] | resistant
gentamicin | resistant
teicoplanin | Variable sensitivity
CO/N=C(\C(=O)N[C@@H]1C(=O)N2C(C(=O)O)=C(COC(C)=O)CS[C@H]12)c1csc(N)n1 [ceftaxime] | sensitive
CO/N=C(\C(=O)N[C@@H]1C(=O)N2C(C(=O)O)=CCS[C@H]12)c1csc(N)n1 [ceftizoxime] | Variable sensitivity
O=C(N[C@H](CO)[C@H](O)c1ccc([N+](=O)[O-])cc1)C(Cl)Cl [chloramphenicol] | sensitive
